What was measured:
Assay in all cases: radiometric filter-binding kinase assay
[1] = system: AKT1 (human), P31749 [S473D]
[2] = target: BTK (human) (UniProt Q06187)
[3] = target: CSNK2A1 (human) (UniProt P68400)
[4] = target: CaMK1 (human) (UniProt Q14012)
[5] = target: DAPK1 (human) (UniProt P53355)
[6] = target: DYRK1A (human) (UniProt Q13627)
[7] = target: DYRK2 (human) (UniProt Q92630)
[8] = target: DYRK3 (human) (UniProt O43781)
[9] = target: EEF2K (human) (UniProt O00418)
[10] = target: EPHA2 (human) (UniProt P29317)
[11] = target: EPHB1 (human) (UniProt P54762)
[12] = target: EPHB3 (human) (UniProt P54753)
EPHB3 (human), sequence (P54753 whole entry, looked up): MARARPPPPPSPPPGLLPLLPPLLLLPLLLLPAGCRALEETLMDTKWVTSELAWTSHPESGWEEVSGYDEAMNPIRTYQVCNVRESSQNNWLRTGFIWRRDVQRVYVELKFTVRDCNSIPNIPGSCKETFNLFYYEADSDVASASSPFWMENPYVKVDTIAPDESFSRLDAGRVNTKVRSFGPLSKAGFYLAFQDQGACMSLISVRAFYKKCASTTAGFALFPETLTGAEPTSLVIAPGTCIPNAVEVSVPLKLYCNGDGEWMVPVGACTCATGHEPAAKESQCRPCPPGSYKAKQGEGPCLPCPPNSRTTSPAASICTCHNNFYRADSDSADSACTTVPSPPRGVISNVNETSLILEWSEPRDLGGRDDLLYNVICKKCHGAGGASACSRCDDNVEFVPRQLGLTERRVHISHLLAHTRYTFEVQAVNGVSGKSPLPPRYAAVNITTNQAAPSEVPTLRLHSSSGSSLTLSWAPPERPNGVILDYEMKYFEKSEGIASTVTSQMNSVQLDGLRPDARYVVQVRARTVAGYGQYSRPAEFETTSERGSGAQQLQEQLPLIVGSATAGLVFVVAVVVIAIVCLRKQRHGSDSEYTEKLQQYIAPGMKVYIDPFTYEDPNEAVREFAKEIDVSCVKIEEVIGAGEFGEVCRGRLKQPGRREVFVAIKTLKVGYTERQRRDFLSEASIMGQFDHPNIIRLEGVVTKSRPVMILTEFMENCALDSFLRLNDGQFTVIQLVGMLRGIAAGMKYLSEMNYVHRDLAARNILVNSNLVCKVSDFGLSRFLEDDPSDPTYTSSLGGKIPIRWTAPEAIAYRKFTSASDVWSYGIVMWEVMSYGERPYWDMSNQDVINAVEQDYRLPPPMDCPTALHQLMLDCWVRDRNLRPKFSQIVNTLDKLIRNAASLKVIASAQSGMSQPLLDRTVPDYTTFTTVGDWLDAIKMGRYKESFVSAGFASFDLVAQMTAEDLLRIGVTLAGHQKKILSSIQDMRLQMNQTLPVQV

[13] = target: ERBB4 (human) (UniProt Q15303)
[14] = target: HIPK1 (human) (UniProt Q86Z02)
[15] = target: HIPK2 (human) (UniProt Q9H2X6)
[16] = target: HIPK3 (human) (UniProt Q9H422)
[17] = target: IKBKE (human) (UniProt Q14164)
[18] = system: LCK (mouse); settings: accession and sequence are those of the human protein
[19] = target: MAP2K6 (human) (UniProt P52564)
[20] = target: MAP3K9 (human) (UniProt P80192)
MAP3K9 (human), sequence (P80192 whole entry, looked up): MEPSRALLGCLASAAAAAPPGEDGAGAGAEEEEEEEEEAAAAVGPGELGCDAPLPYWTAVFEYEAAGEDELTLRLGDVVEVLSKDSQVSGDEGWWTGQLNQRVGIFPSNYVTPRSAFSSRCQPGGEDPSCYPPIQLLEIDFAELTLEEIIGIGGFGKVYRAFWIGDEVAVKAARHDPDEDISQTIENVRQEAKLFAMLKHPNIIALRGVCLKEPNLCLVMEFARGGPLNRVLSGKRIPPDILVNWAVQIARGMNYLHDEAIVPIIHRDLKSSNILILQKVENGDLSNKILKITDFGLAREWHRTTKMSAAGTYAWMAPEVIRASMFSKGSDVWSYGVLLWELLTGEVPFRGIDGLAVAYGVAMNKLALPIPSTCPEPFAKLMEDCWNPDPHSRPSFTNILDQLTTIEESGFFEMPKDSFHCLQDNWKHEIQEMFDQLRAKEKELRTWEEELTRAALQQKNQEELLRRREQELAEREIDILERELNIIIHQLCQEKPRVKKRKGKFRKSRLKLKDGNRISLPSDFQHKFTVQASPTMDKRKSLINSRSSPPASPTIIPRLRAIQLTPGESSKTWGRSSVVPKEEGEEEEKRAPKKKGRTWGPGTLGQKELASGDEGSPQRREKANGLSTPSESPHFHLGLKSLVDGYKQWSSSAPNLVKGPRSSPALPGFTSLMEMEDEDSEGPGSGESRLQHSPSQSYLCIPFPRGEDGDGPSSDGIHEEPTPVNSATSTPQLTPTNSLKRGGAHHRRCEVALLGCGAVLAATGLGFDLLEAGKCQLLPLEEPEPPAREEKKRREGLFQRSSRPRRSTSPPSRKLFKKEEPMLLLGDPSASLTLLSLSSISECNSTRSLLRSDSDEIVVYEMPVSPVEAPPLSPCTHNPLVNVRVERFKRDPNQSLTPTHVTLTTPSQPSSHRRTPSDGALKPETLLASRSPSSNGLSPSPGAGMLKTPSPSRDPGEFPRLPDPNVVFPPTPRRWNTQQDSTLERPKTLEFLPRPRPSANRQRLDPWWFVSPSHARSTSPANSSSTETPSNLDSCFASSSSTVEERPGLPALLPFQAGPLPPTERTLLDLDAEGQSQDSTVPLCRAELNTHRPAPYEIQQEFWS

[21] = target: MAPK13 (human) (UniProt O15264)
[22] = target: MAPK14 (human) (UniProt Q16539)
MAPK14 (human), sequence (Q16539 whole entry, looked up): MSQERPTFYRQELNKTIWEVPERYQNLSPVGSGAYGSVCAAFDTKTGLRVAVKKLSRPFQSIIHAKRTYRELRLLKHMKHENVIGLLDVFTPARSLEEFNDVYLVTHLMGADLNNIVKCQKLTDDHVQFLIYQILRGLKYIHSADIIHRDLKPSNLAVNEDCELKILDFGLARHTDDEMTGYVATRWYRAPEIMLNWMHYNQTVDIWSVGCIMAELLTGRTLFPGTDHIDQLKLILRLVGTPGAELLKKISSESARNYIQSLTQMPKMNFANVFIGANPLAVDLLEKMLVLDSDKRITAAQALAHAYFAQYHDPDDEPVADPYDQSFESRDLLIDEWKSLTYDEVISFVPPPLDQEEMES

[23] = target: MAPKAPK5 (human) (UniProt Q8IW41)
MAPKAPK5 (human), sequence (Q8IW41 whole entry, looked up): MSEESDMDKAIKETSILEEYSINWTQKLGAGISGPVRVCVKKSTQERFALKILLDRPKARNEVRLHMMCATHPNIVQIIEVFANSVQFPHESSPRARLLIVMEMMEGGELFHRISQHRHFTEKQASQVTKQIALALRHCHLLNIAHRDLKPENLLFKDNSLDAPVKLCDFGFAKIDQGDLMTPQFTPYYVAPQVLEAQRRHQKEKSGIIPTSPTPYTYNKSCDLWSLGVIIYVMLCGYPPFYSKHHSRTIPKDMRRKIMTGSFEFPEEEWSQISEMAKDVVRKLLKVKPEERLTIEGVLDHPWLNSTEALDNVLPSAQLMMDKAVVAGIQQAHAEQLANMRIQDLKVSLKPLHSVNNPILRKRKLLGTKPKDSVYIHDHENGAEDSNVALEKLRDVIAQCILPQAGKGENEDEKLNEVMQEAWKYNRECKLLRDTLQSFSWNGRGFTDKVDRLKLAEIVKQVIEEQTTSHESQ

[24] = target: MARK1 (human) (UniProt Q9P0L2)
[25] = target: MARK3 (human) (UniProt P27448)
[26] = target: MST4 (human) (UniProt Q9P289)
MST4 (human), sequence (Q9P289 whole entry, looked up): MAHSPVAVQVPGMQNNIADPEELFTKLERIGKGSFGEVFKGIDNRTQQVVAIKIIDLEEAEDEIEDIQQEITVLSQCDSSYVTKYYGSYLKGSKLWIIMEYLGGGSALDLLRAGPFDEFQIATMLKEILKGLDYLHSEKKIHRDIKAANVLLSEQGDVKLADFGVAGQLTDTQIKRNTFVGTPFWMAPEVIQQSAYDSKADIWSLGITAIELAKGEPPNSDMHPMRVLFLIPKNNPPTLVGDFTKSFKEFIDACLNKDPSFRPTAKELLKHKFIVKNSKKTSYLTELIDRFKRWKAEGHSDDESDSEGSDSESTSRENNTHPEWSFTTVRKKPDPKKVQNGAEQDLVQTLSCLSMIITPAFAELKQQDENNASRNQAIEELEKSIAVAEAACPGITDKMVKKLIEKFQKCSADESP

[27] = target: NEK6 (human) (UniProt Q9HC98)
NEK6 (human), sequence (Q9HC98 whole entry, looked up): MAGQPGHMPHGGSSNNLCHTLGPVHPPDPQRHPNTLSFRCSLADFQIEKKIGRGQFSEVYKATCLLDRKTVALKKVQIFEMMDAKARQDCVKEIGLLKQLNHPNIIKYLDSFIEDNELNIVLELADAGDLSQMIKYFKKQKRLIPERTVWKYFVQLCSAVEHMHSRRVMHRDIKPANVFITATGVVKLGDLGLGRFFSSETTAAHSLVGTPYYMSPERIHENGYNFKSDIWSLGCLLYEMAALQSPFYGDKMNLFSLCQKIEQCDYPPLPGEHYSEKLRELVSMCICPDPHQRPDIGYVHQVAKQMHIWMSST

[28] = target: NUAK1 (human) (UniProt O60285)
[29] = target: PAK4 (human) (UniProt O96013)
[30] = target: PAK6 (human) (UniProt Q9NQU5)
[31] = target: PAK7 (human) (UniProt Q9P286)
[32] = target: PRKCZ (human) (UniProt Q05513)
PRKCZ (human), sequence (Q05513 whole entry, looked up): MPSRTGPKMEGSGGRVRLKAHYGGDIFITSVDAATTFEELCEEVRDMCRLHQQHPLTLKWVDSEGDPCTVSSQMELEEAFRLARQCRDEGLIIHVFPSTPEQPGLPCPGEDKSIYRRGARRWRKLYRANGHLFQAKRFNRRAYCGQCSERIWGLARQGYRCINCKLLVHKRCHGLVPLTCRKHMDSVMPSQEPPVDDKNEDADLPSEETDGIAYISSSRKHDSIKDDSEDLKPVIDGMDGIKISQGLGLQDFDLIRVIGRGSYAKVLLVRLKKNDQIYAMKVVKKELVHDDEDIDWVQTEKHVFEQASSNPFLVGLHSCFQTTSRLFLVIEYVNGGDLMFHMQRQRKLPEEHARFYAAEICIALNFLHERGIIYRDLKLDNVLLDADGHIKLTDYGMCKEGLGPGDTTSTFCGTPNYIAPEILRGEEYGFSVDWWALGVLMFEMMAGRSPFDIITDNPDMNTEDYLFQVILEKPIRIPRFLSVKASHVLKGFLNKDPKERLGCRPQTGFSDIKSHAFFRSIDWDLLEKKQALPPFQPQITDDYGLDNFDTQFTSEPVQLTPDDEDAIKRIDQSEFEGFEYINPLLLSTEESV

[33] = system: ROCK2 (rat); settings: accession and sequence are those of the human protein
[34] = target: RPS6KA5 KD1 KD2 (human) (UniProt O75582)
[35] = target: MAPK11 (human) (UniProt Q15759)

CaMK1 (human), sequence (Q14012 whole entry, looked up): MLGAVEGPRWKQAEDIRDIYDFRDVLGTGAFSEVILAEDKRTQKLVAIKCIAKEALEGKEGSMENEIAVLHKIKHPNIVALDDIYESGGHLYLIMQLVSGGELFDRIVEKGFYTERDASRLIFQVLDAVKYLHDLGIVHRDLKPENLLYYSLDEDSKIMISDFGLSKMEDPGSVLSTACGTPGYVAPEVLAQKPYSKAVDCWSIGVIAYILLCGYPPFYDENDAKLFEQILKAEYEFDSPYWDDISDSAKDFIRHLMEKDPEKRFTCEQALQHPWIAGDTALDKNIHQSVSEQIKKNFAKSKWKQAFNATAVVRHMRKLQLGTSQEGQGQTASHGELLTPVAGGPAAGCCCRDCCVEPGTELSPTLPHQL
CSNK2A1 (human), sequence (P68400 whole entry, looked up): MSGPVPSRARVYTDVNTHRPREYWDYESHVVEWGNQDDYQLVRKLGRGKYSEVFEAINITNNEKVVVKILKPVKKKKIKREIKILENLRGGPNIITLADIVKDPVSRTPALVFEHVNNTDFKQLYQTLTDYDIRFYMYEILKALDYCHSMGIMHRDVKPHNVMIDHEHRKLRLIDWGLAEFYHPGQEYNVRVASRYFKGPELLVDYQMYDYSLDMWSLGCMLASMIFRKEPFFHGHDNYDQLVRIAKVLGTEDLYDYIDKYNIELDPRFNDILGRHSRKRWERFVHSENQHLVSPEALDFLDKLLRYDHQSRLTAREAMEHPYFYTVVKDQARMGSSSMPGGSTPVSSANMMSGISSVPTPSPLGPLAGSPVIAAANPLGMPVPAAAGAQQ

`O=C(NOCC(O)CO)c1ccc(F)c(F)c1Nc1ccc(I)cc1Cl` (configuration not stated) showed a residual activity ([1]; compound 10.0 µM) of 99%, a residual activity ([2]; compound 1.0 µM) of 102% and a residual activity ([2]; compound 10.0 µM) of 97%. For the same molecule, the residual activity ([3]; compound 1.0 µM) was 111%, the residual activity ([3]; compound 10.0 µM) was 98% and the residual activity ([4]; compound 1.0 µM) was 106%. It also gave a residual activity ([4]; compound 10.0 µM) of 84%, a residual activity ([5]; compound 1.0 µM) of 97% and a residual activity ([5]; compound 10.0 µM) of 98%. The residual activity ([6]; compound 1.0 µM) was 91%, the residual activity ([6]; compound 10.0 µM) was 85% and the residual activity ([7]; compound 1.0 µM) was 107%. For the same molecule, the residual activity ([7]; compound 10.0 µM) was 111%, the residual activity ([8]; compound 1.0 µM) was 107% and the residual activity ([8]; compound 10.0 µM) was 83%. It also gave a residual activity ([9]; compound 1.0 µM) of 84%, a residual activity ([9]; compound 10.0 µM) of 92% and a residual activity ([10]; compound 1.0 µM) of 112%. The residual activity ([10]; compound 10.0 µM) was 105%, the residual activity ([11]; compound 1.0 µM) was 107% and the residual activity ([11]; compound 10.0 µM) was 92%. For the same molecule, the residual activity ([12]; compound 1.0 µM) was 113%, the residual activity ([12]; compound 10.0 µM) was 82% and the residual activity ([13]; compound 1.0 µM) was 86%. For the same molecule, the residual activity ([13]; compound 10.0 µM) was 82%, the residual activity ([14]; compound 1.0 µM) was 96% and the residual activity ([14]; compound 10.0 µM) was 85%. For the same molecule, the residual activity ([15]; compound 1.0 µM) was 102%, the residual activity ([15]; compound 10.0 µM) was 106% and the residual activity ([16]; compound 1.0 µM) was 90%. For the same molecule, the residual activity ([16]; compound 10.0 µM) was 101%, the residual activity ([17]; compound 1.0 µM) was 102% and the residual activity ([17]; compound 10.0 µM) was 103%. It also gave a residual activity ([18]; compound 1.0 µM) of 93%, a residual activity ([18]; compound 10.0 µM) of 104% and a residual activity ([19]; compound 1.0 µM) of 90%. It also gave a residual activity ([19]; compound 10.0 µM) of 67%, a residual activity ([20]; compound 1.0 µM) of 84% and a residual activity ([20]; compound 10.0 µM) of 85%. The residual activity ([21]; compound 1.0 µM) was 84%, the residual activity ([21]; compound 10.0 µM) was 97% and the residual activity ([22]; compound 1.0 µM) was 102%. The residual activity ([22]; compound 10.0 µM) was 97%, the residual activity ([23]; compound 1.0 µM) was 93% and the residual activity ([23]; compound 10.0 µM) was 100%. The residual activity ([24]; compound 1.0 µM) was 77%, the residual activity ([24]; compound 10.0 µM) was 71% and the residual activity ([25]; compound 1.0 µM) was 73%. It also gave a residual activity ([25]; compound 10.0 µM) of 88%, a residual activity ([26]; compound 1.0 µM) of 107% and a residual activity ([26]; compound 10.0 µM) of 94%. For the same molecule, the residual activity ([27]; compound 1.0 µM) was 101%, the residual activity ([27]; compound 10.0 µM) was 103% and the residual activity ([28]; compound 1.0 µM) was 108%. It also gave a residual activity ([28]; compound 10.0 µM) of 95%, a residual activity ([29]; compound 1.0 µM) of 98% and a residual activity ([29]; compound 10.0 µM) of 77%. For the same molecule, the residual activity ([30]; compound 10.0 µM) was 103%, the residual activity ([31]; compound 1.0 µM) was 102% and the residual activity ([31]; compound 10.0 µM) was 86%. It also gave a residual activity ([32]; compound 1.0 µM) of 89%, a residual activity ([32]; compound 10.0 µM) of 91% and a residual activity ([33]; compound 1.0 µM) of 102%. For the same molecule, the residual activity ([33]; compound 10.0 µM) was 103%, the residual activity ([34]; compound 1.0 µM) was 98% and the residual activity ([34]; compound 10.0 µM) was 96%.
With `CN1CCN(CCOc2cc(OC3CCOCC3)c3c(Nc4c(Cl)ccc5c4OCO5)ncnc3c2)CC1` the residual activity ([1]; compound 0.1 µM) was 99%, the residual activity ([2]; compound 0.1 µM) was 57% and the residual activity ([3]; compound 0.1 µM) was 112%. The residual activity ([4]; compound 0.1 µM) was 106%, the residual activity ([5]; compound 0.1 µM) was 82% and the residual activity ([6]; compound 0.1 µM) was 94%. For the same molecule, the residual activity ([7]; compound 0.1 µM) was 109%, the residual activity ([8]; compound 0.1 µM) was 114% and the residual activity ([9]; compound 0.1 µM) was 65%. The residual activity ([10]; compound 0.1 µM) was 55%, the residual activity ([11]; compound 0.1 µM) was 81% and the residual activity ([12]; compound 0.1 µM) was 89%. It also gave a residual activity ([13]; compound 0.1 µM) of 67%, a residual activity ([15]; compound 0.1 µM) of 80% and a residual activity ([16]; compound 0.1 µM) of 101%. It also gave a residual activity ([17]; compound 0.1 µM) of 88%, a residual activity ([19]; compound 0.1 µM) of 100% and a residual activity ([20]; compound 0.1 µM) of 86%. It also gave a residual activity ([35]; compound 0.1 µM) of 85%, a residual activity ([21]; compound 0.1 µM) of 91% and a residual activity ([22]; compound 0.1 µM) of 108%. The residual activity ([24]; compound 0.1 µM) was 101%, the residual activity ([25]; compound 0.1 µM) was 99% and the residual activity ([26]; compound 0.1 µM) was 104%. It also gave a residual activity ([27]; compound 0.1 µM) of 101%, a residual activity ([28]; compound 0.1 µM) of 95% and a residual activity ([29]; compound 0.1 µM) of 99%. It also gave a residual activity ([30]; compound 0.1 µM) of 90%, a residual activity ([31]; compound 0.1 µM) of 98% and a residual activity ([32]; compound 0.1 µM) of 101%. The residual activity ([33]; compound 0.1 µM) was 111% and the residual activity ([34]; compound 0.1 µM) was 103%.
Molecule `CC(C)C[C@H](NC(=O)CNC(=O)c1cc(Cl)ccc1Cl)B1OC(=O)CC(CC(=O)O)(C(=O)O)O1` (some centres not stated) has a residual activity ([1]; compound 10.0 µM) of 83%, a residual activity ([2]; compound 10.0 µM) of 90% and a residual activity ([3]; compound 10.0 µM) of 82%. For the same molecule, the residual activity ([4]; compound 10.0 µM) was 80%, the residual activity ([5]; compound 10.0 µM) was 88% and the residual activity ([6]; compound 10.0 µM) was 88%. The residual activity ([7]; compound 10.0 µM) was 94%, the residual activity ([8]; compound 10.0 µM) was 97% and the residual activity ([9]; compound 10.0 µM) was 83%. For the same molecule, the residual activity ([10]; compound 10.0 µM) was 98%, the residual activity ([11]; compound 10.0 µM) was 75% and the residual activity ([12]; compound 10.0 µM) was 62%. The residual activity ([13]; compound 10.0 µM) was 72%, the residual activity ([14]; compound 10.0 µM) was 111% and the residual activity ([15]; compound 10.0 µM) was 88%. For the same molecule, the residual activity ([16]; compound 10.0 µM) was 118%, the residual activity ([17]; compound 10.0 µM) was 91% and the residual activity ([18]; compound 10.0 µM) was 81%. For the same molecule, the residual activity ([19]; compound 10.0 µM) was 92%, the residual activity ([20]; compound 10.0 µM) was 75% and the residual activity ([35]; compound 10.0 µM) was 70%. The residual activity ([21]; compound 10.0 µM) was 98%, the residual activity ([22]; compound 10.0 µM) was 88% and the residual activity ([23]; compound 10.0 µM) was 92%. It also gave a residual activity ([24]; compound 10.0 µM) of 81%, a residual activity ([25]; compound 10.0 µM) of 72% and a residual activity ([26]; compound 10.0 µM) of 122%. For the same molecule, the residual activity ([27]; compound 10.0 µM) was 82%, the residual activity ([28]; compound 10.0 µM) was 78% and the residual activity ([29]; compound 10.0 µM) was 77%. For the same molecule, the residual activity ([30]; compound 10.0 µM) was 68%, the residual activity ([31]; compound 10.0 µM) was 94% and the residual activity ([32]; compound 10.0 µM) was 95%. The residual activity ([33]; compound 10.0 µM) was 76%.

From the kinase profiling compilation of Christmann-Franck et al. (2016)
